Source: ChEMBL document CHEMBL6134837, “Synergistic Cancer Therapy: An NIR-Activated Methylene Blue-Nitrogen Mustard Prodrug for Combined Chemotherapy and Photodynamic Therapy” (J Med Chem, 2025)
Activity calls are given as the source filed them. No cut-off for these calls is given here.

Key:
[1] = test system: B16-F10; assay: Induction of DNA damage in mouse B16-F10 cells assessed as green fluorescence in nuclei at 10 uM measured after irradiation with […] light by gamma-H2AX based assay; type: functional, cell-based
[2] = Photoactivation of the compound assessed as release of methylene blue at 10 uM measured after 21 mins under 660 nm laser irradiation; conditions: 0.35 h
[3] = Photoactivation of the compound assessed as release of methylene blue by measuring photolysis half-life at 10 uM under 660 nm laser irradiation
[4] = Photoactivation of the compound assessed as fluorescence changes at 10 uM measured after 21 mins under 660 nm laser irradiation relative to under dark condition; conditions: 0.35 h
[5] = Stability of the compound measured after 7 days under dark condition; type: physicochemical; conditions: 168 h; time 7 day
[6] = Induction of ROS generation in DCFH solution assessed as increase in fluorescent intensity measured under laser irradiation 660 nm for continuous 9 secs; type: functional; conditions: time 9.0 sec
[7] = Induction of ROS generation in DCFH solution assessed as increase in fluorescent intensity using 525 nm pre-irradiated compound; type: functional
[8] = Induction of ROS generation in DCFH solution assessed as fold increase in fluorescent intensity using 525 nm pre-irradiated compound relative to non-illuminated condition; type: functional
[9] = Induction of ROS generation assessed as increase in singlet oxygen production using pre-irradiated compound by measuring reduction in ABDA absorption at 378 nm measured for 90 secs; type: functional; parameters: scale not given: the % may be the effect or the level left; conditions: time 90.0 sec
[10] = Induction of ROS generation assessed as increase in singlet oxygen production by measuring reduction in ABDA absorption; type: functional
[11] = Induction of ROS generation assessed as superoxide anion production by measuring fold increase in fluorescent intensity of DHR123 using 526 nm pre-irradiated compound relative to non-illuminated condition; type: functional
[12] = Induction of ROS generation assessed as superoxide anion production by measuring increase in fluorescent intensity of DHR123 using 526 nm (using non pre-irradiated condition); type: functional
[13] = Induction of hydroxyl radicals generation before irradiation by coumarin-3-carboxylic acid (3-CCA) assay; type: functional
[14] = Induction of hydroxyl radicals generation after irradiation by coumarin-3-carboxylic acid (3-CCA) assay; type: functional
[15] = test system: B16-F10; assay: Cytotoxicity against mouse B16-F10 cells assessed as cell viability at 1 to 10 uM measured after 48 hrs incubation under dark by MTT assay; type: toxicity, cell-based; conditions: b16-f10, 48 h, dose 1-10 µM
[16] = test system: B16-F10; assay: Cytotoxicity against mouse B16-F10 cells assessed as cell viability measured irradiated with 100 mW/cm^2, 660 nm light for 15 mins and measured after 48 hrs incubation by MTT assay; type: functional, cell-based; conditions: B16-F10, light or radiation study
[17] = test system: B16-F10; assay: Cytotoxicity against mouse B16-F10 cells assessed as cell death rate measured at 2 uM irradiated with 100 mW/cm^2, 660 nm light for 15 mins and measured after 48 hrs of incubation by MTT assay relative to control; type: functional
[18] = test system: B16-F10; assay: Cytotoxicity against mouse B16-F10 cells assessed as cell viability measured at 10 uM after cells irradiated with 100 mW/cm^2, 660 nm light irradiation for 15 mins followed by measured after 48 hrs incubation by MTT assay relative to control; type: functional; conditions: B16-F10, light or radiation study, read-out: Activity
[19] = test system: B16-F10; assay: Cytotoxicity against mouse B16-F10 cells assessed as increase in dead cells by measuring red fluorescence at 10 uM measured after cells irradiated with 100 mW/cm^2, 660 nm light irradiation for 15 mins by Calcein-AM/PI staining based photodynamic therapy (PDT) assay; type: functional, cell-based
[20] = test system: B16-F10; assay: Cytotoxicity against mouse B16-F10 cells assessed as cell viability at 10 uM measured absence of irradiation by Calcein-AM/PI staining based assay; type: toxicity; conditions: b16-f10, 10 µM
[21] = test system: B16-F10; assay: Cytotoxicity against mouse B16-F10 cells assessed as increase in dead cells by measuring red fluorescence at 10 uM measured after cells irradiated with 100 mW/cm^2, 660 nm light irradiation for 3 to 15 mins by Calcein-AM/PI staining based photodynamic therapy (PDT) assay; type: functional, cell-based; conditions: time 3-15 min
[22] = test system: B16-F10; assay: Cytotoxicity against mouse B16-F10 cells assessed as decrease in green fluorescence at 1 to 10 uM measured after cells irradiated with 100 mW/cm^2, 660 nm light irradiation for 15 mins by Calcein-AM/PI staining based photodynamic therapy (PDT) assay; type: functional, cell-based; conditions: dose 1-10 µM
[23] = test system: B16-F10; assay: Induction of ROS generation in mouse B16-F10 cells assessed as fluorescence intensity at 10 uM measured co-incubated with DCFH-DA followed by irradiated for 3 to 15 mins; type: functional, cell-based; conditions: time 3-15 min
[24] = test system: B16-F10; assay: Induction of ROS generation in mouse B16-F10 cells assessed as increase in intracellular superoxide anion by measuring red fluorescence in nucleus at 10 uM measured co-incubated with dihydroethidium (DHE) followed by irradiated for 3 to 15 mins; type: functional, cell-based; conditions: time 3-15 min
[25] = test system: B16-F10; assay: Induction of ROS generation in mouse B16-F10 cells assessed as increase in intracellular singlet oxygen by measuring […] fluorescence in nucleus at 10 uM measured co-incubated with SOSG followed by irradiated for 3 to 15 mins; type: functional, cell-based; conditions: time 3-15 min
[26] = test system: B16-F10; assay: Induction of DNA damage in mouse B16-F10 cells assessed as green fluorescence in nuclei measured in absence light at 10 uM by gamma-H2AX based assay; type: functional, cell-based
[27] = test system: B16-F10; assay: Induction of DNA damage in mouse B16-F10 cells assessed as condensed chromatin measured after irradiation with […] light at 10 uM by Hoechst 33342 staining based assay; type: functional, cell-based
[28] = test system: B16-F10; assay: In vivo antitumor activity against mouse B16-F10 cells transplanted in BALB/c mouse model assessed as tumor growth inhibition at 200 uM administered via intratumoural injection followed by irradiated with 660 nm laser irradiation measured on day 1; type: functional, organism-based; conditions: route it(Intratumoral), time 1.0 day
[29] = test system: B16-F10; assay: Induction of apoptosis in mouse B16-F10 cells assessed as viable cells at 10 uM measured after 8 hrs by annexin VFITC (AV)/propidium iodide (PI) based flow cytometry (reference value: 92.2%); type: functional; conditions: read-out: Activity
[30] = test system: B16-F10; assay: Induction of apoptosis in mouse B16-F10 cells assessed as early apoptotic cells at 10 uM measured after 8 hrs by annexin VFITC (AV)/propidium iodide (PI) based flow cytometry (reference value: 1.02%); type: functional
[31] = test system: B16-F10; assay: Induction of apoptosis in mouse B16-F10 cells assessed as late apoptotic cells at 10 uM measured after 8 hrs by annexin VFITC (AV)/propidium iodide (PI) based flow cytometry (reference value: 5.20%); type: functional
[32] = test system: B16-F10; assay: Induction of apoptosis in mouse B16-F10 cells assessed as necrotic cells at 10 uM measured after 8 hrs by annexin VFITC (AV)/propidium iodide (PI) based flow cytometry (reference value: 1.61%); type: functional
[33] = test system: B16-F10; assay: Induction of apoptosis in mouse B16-F10 cells assessed as viable cells at 10 uM measured after 8 hrs followed by irradiated (100 mW/cm^2) for 15 mins by annexin VFITC (AV)/propidium iodide (PI) based flow cytometry (reference value: 92.2%); type: functional; conditions: B16-F10, light or radiation study, read-out: Activity
[34] = test system: B16-F10; assay: Induction of apoptosis in mouse B16-F10 cells assessed as early apoptotic cells at 10 uM measured after 8 hrs followed by irradiated (100 mW/cm^2) for 15 mins by annexin VFITC (AV)/propidium iodide (PI) based flow cytometry (reference value: 1.02%); type: functional
[35] = test system: B16-F10; assay: Induction of apoptosis in mouse B16-F10 cells assessed as late apoptotic cells at 10 uM measured after 8 hrs followed by irradiated (100 mW/cm^2) for 15 mins by annexin VFITC (AV)/propidium iodide (PI) based flow cytometry (reference value: 5.20%); type: functional
[36] = test system: B16-F10; assay: Induction of apoptosis in mouse B16-F10 cells assessed as necrotic cells at 10 uM measured after 8 hrs followed by irradiated (100 mW/cm^2) for 15 mins by annexin VFITC (AV)/propidium iodide (PI) based flow cytometry (reference value: 1.61%); type: functional
[37] = Toxicity in BALB/c mouse transplanted with mouse B16-F10 cells assessed as body weight change measured at 200 uM administered via intratumoural injection measured after 7 days; conditions: in vivo, other, 168 h, route it(Intratumoral), time 7 day
[38] = Drug uptake in BALB/c mouse transplanted with mouse B16-F10 cells assessed as increase in fluorescence intensity at tumor site at 200 uM administered via intratumoural injection followed by irradiated with 660 nm laser measured for 3 to 21 mins by imaging assay; type: ADME; conditions: in vivo, other, time 3-21 min, route it(Intratumoral)
[39] = test system: B16-F10; assay: In vivo antitumor activity against mouse B16-F10 cells transplanted in BALB/c mouse model assessed as tumor growth inhibition at 200 uM administered via intratumoural injection followed by irradiated with 660 nm laser irradiation measured for 7 days; type: functional, organism-based; conditions: route it(Intratumoral), time 7.0 day
[40] = test system: B16-F10; assay: In vivo antitumor activity against mouse B16-F10 cells transplanted in BALB/c mouse model assessed as inhibition of tumor cells in tumor slice at 200 uM administered via intratumoural injection followed by irradiated with 660 nm laser irradiation measured for 7 days by H and E staining based analysis; type: functional, organism-based; conditions: route it(Intratumoral), time 7.0 day
[41] = Hemolysis in healthy mouse RBC assessed as hemolysis rate at 1 to 256 uM measured after 2 hrs incubation by microplate reader; type: toxicity, cell-based, Erythrocyte; conditions: mouse red blood cells, dose 1-256 µM, read-out: Activity
[42] = Toxicity in BALB/c mouse transplanted with mouse B16-F10 cells assessed as heart damage measured at 200 uM administered via intratumoural injection measured after 7 days by H and E staining based analysis; type: tissue-based; conditions: in vivo, other, 168 h, route it(Intratumoral), time 7 day
[43] = Toxicity in BALB/c mouse transplanted with mouse B16-F10 cells assessed as liver damage measured at 200 uM administered via intratumoural injection measured after 7 days by H and E staining based analysis; type: tissue-based; conditions: in vivo, other, 168 h, route it(Intratumoral), time 7 day
[44] = Toxicity in BALB/c mouse transplanted with mouse B16-F10 cells assessed as spleen damage measured at 200 uM administered via intratumoural injection measured after 7 days by H and E staining based analysis; type: tissue-based; conditions: in vivo, other, 168 h, route it(Intratumoral), time 7 day
[45] = Toxicity in BALB/c mouse transplanted with mouse B16-F10 cells assessed as lung damage measured at 200 uM administered via intratumoural injection measured after 7 days by H and E staining based analysis; type: tissue-based; conditions: in vivo, other, 168 h, route it(Intratumoral), time 7 day
[46] = Toxicity in BALB/c mouse transplanted with mouse B16-F10 cells assessed as kidney damage measured at 200 uM administered via intratumoural injection measured after 7 days by H and E staining based analysis; type: tissue-based; conditions: in vivo, other, 168 h, route it(Intratumoral), time 7 day

Compound: CN(C)c1ccc2nc3ccc(=[N+](C)C)cc-3sc2c1
- Activity [1]: Active

Compound: CN(C)c1ccc2c(c1)Sc1cc(N(C)C)ccc1N2C(=O)Nc1ccc(N(CCCl)CCCl)cc1
- Activity [2]: 100%
- t1/2 [3]: 11 min
- fold change (FC) [4]: 7
- Stability [5]: Stable
- Activity [6]: inactive
- Activity [7]: Active
- fold change (FC) [8]: 69
- Activity [9]: 97%
- Activity [10]: inactive
- fold change (FC) [11]: 113
- Activity [12]: inactive
- Activity [13]: inactive
- Activity [14]: inactive
- Activity [15]: Non-toxic
- IC50 [16]: 1350 nM
- Activity [17]: 62.2%
- viability at 10 µM [18]: 9.4%
- Activity [19]: Active; Almost Exclusively Exhibiting Red Fluorescence Signal
- Activity [20]: Non-toxic
- Activity [21]: Active
- Activity [22]: Active
- Activity [23]: Active; Fluorescence Intensity Of Dcfh Within Cells Exhibited A Positive Correlation With The Duration Of Light Exposure
- Activity [24]: Active
- Activity [25]: Active
- Activity [1]: Active; Effect Is Higher Compared With Nm And Mb Group
- Activity [26]: Not active; Compound Showed Only Minimal Green Fluorescence
- Activity [27]: Active
- Activity [28]: Active; Compound Exhibit Strong Activity Relative To Mb+Light Group
- viability at 10 µM [29]: 89.2%
- Activity [30]: 6.85%
- Activity [31]: 3.27%
- Activity [32]: 0.65%
- viability at 10 µM [33]: 23.8%
- Activity [34]: 44.8%
- Activity [35]: 30.9%
- Activity [36]: 0.45%
- Activity [37]: Non-toxic
- Drug uptake [38]: Active
- Activity [39]: Active
- Activity [40]: Active; Compared With Nm And Mb + Irradiation Group Â?? Compound Showed More Pronounced Effect
- hemolysis at 2 h, up to 256 µM [41]: < 5%
- Activity [42]: Non-toxic
- Activity [43]: Non-toxic
- Activity [44]: Non-toxic
- Activity [45]: Non-toxic
- Activity [46]: Non-toxic

Compound: CN(C)c1ccc2nc3ccc(N(C)C)cc3[s+]c2c1.[Cl-] [METHYLENE BLUE ANHYDROUS]
- viability at 10 µM [18]: 22.5%
- viability at 10 µM [33]: 33.1%
- Activity [34]: 54.8%
- Activity [35]: 11.3%
- Activity [36]: 0.83%
